Series [1] deals with HUVEC. In words: Tube formation assay. The series is classed as cell-based, human. To be noted: candesartan 15, 7.5, 3.75 µM; sunitinib 2 µM. As for the experimental part: The 96-well plate was coated with 50 µl matrix glue per well, and then HUVEC was inoculated into the 96-well plate coated with matrix glue with a density of 4 × 10^4 cells per well. Photos were taken with an optical microscope (Nikon, China) after culture at 37℃ and 5% CO2 for 6–8 h, and the length of the generated blood vessels was analyzed using ImageJ.

Series [2] concerns FAK-MMP9 signaling in HUVEC. In words: Western blot of FAK and MMP-9. The class given is cell-based, human. The note with it: candesartan 15, 7.5, 3.75 µM; sunitinib 2 µM. The protocol: Total protein was extracted using RIPA lysis buffer (Solarbio, China) supplemented with phenylmethylsulfonyl fluoride (PMSF; Thermo Fisher Scientific, USA), protease inhibitor cocktail (Roche, Switzerland), and phosphatase inhibitor cocktail (Roche, Switzerland). Protein concentration was determined using a BCA protein assay kit (Thermo Fisher Scientific, USA). Equal amounts of protein were separated by 10% SDS-polyacrylamide gel electrophoresis (SDS-PAGE) and transferred onto nitrocellulose (NC) membranes. […] All primary antibodies were purchased from Cell Signaling Technology (CST, USA), except for GAPDH, which was obtained from Proteintech (Wuhan, China). After washing, the membranes were incubated with HRP-conjugated goat anti-rabbit or anti-mouse IgG secondary antibodies (Biosharp, China) for 1 h at room temperature. Protein bands were visualized using an enhanced chemiluminescence (ECL) detection system and scanned using a chemiluminescence imaging system.
For orientation: In western blotting, separated proteins are transferred to a membrane and probed.

Series [3] concerns HUVEC. In words: Annexin V-FITC/PI apoptosis assay (flow cytometry). The series is classed as cell-based, human. The note with it: 3.75-15 µM. The source says: The Annexin V-FITC/PI Apoptosis Detection Kit (Vazyme) was used to detect cell apoptosis according to the manufacturer’s instructions. Cells were stained with the kit and then analyzed using flow cytometry (Becton Dickinson [BD]).
(In flow cytometry, cells or beads pass a laser one at a time.)

For series [4], the system named is HUVEC. As to the kind of experiment: Sulforhodamine B proliferation assay. To be noted: for IC50: Homo sapiens, HUVEC, read-out: IC50, HUVEC proliferation. The series is classed as cell-based, human. As for the experimental part:
The culture medium was aspirated from the plates, and cells were fixed with 10% trichloroacetic acid (TCA) for 30 min. The plates were then washed twice with distilled water and air-dried. Subsequently, 0.4% sulforhodamine B (SRB) solution was added, and the plates were stained on a shaker for 20 min. The staining solution was discarded, and excess dye was removed by washing with freshly prepared 1% acetic acid. After air-drying, 10 mM Tris solution was added to each well. The plates were agitated on a shaker for 5 min to dissolve the dye, and the absorbance was measured at 560 nm using a microplate reader.
Angiogenesis is a multi-step process requiring coordinated endothelial functions, such as cell migration, proliferation, and extracellular matrix remodeling. […] Moreover, in the later stages of angiogenesis, vascular endothelial cells undergo proliferation and migration and further align to form cord-like, lumen-like structures(21). Thus, we conducted a vascular tube formation assay to evaluate the effect of candesartan on vascular normalization.
Background: The SRB assay estimates cell density from bound dye.

For series [5], the system named is 4T1 cells (orthotopic breast cancer). As to the kind of experiment: Anti-tumor efficacy in breast cancer mouse model, alone or with Sunitinib. The class given is in vivo, BALB/c mice.
Description: Female BABL/c mice aged 6–8 weeks were purchased from Beijing SPF Biological Co., LTD. 4T1 cells in good growth condition were collected and injected in situ into the mammary fat pad of female BALB/c mice at a density of 2 × 10⁶ cells per mouse. […] When the tumor size increased to approximately 1200 mm^3, we will conduct further tests. It should be pointed out that, when studying vascular leakage, DyLight™ 649-labeled tomato lectin (Tomoto-lectin) was injected intravenously into the mice via the tail vein two hours prior to tissue collection. The tumor tissues were then excised. Half of each tumor was fixed in 4% paraformaldehyde and subsequently processed for paraffin embedding and immunofluorescence staining. The remaining half was immediately frozen in liquid nitrogen and prepared as frozen sections for further experimental procedures.
Paraffin-embedded mouse tumor tissue sections were deparaffinized, rehydrated, and fixed with 4% paraformaldehyde at room temperature for 20 min. After washing with PBS, the sections were permeabilized with 1% Triton X-100 (Solarbio, China) for 15 min at room temperature, followed by blocking with 5% bovine serum albumin (BSA) in PBS containing 0.1% Triton X-100 for 1 h at room temperature to reduce nonspecific binding. […] After washing, the sections were further incubated overnight at 4 °C with primary antibodies against dsDNA and HSP60. The next day, the sections were incubated with Alexa Fluor 647-conjugated goat anti-rabbit IgG (H + L) secondary antibody (catalog no. A0468, Beyotime Biotechnology, China) for 1 h at room temperature in the dark. Nuclear staining was performed using DAPI (catalog no. C0060, Solarbio, China).
To observe metastasis, tissues were harvested and fixed in Bouin’s solution (saturated picric acid 75 ml + 40% formaldehyde 25 ml + glacial acetic acid 5 ml). After fixation, tissues were stained with picric acid to visualize metastatic nodules, which appeared as distinct lesions against the background tissue.
The next series deals with T1, APLNR (Homo sapiens, UniProt P35414).
T1 sequence (P35414 1-380): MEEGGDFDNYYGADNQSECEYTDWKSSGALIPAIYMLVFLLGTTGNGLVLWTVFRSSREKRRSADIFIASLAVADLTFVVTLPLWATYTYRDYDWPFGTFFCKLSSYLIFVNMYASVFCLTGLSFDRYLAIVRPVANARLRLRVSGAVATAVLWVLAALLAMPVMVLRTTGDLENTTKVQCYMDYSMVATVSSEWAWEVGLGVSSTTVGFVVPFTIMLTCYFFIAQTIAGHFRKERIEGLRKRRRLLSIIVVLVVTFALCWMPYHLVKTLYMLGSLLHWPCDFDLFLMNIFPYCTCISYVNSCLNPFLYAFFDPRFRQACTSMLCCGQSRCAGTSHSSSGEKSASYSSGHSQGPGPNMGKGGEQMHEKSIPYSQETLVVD
As to the kind of experiment: cAMP assay in APLNR-HEK293T cells. The class given is cell-based. Also noted: expressed in transfected cells; host or cells: HEK293. To be noted: forskolin 20 µM, Apelin-13 0.1 µM, compound 10^-4-100 µM. The protocol: A suspension of APLNR-HEK293T cells was prepared and seeded into a 384-well OptiPlate™ 384 at a density of 1 × 10⁴ cells per well. The cells were cultured at 37℃ for 24 h. The culture medium was then removed, and 7.5 µL of serum-free medium containing 500 µM IBMX and the test compound was added to each well. The plate was incubated at 37℃ with 5% CO2 for 30 min. The concentration of cAMP was subsequently measured using the cAMP-Glo™ Assay Kit (Promega).
To characterize the molecular interactions between candesartan and APLNR, we performed molecular docking simulations using the APLNR crystal structure (PDB: 7SUS) as a template. […] In addition, previous studies have established that APLNR activation by its endogenous agonist Apelin-13 […] Gi protein signaling, thereby attenuating forskolin-induced cAMP accumulation. Then, using APLNR overexpression cell line (HEK293T-APLNR) and cAMP quantification assays to investigate the inhibitory activity of candesartan on APLNR.

For the next series, the system named is zebrafish embryos. In words: Zebrafish embryo toxicity. The series is classed as in vivo, zebrafish (Danio rerio). To be noted: embryos exposed 12 to 48 hpf, survival. As for the experimental part:
Transgenic zebrafish Tg(flk: EGFP) were obtained from the China Zebrafish Resource Center and maintained at 28 ± 1 °C under a 14-hour light/10-hour dark cycle. […] Survival rates were recorded to calculate the median lethal concentration (LC₅₀). For the retinal angiogenesis assay, embryos at 1 day post fertilization (dpf) were transferred to E3 medium containing 5 mM CoCl₂·6 H₂O and 2.5 µg/mL GS4012 to induce hypoxia and abnormal vessel formation. At 3 dpf, test compounds were added and incubation continued until 5 dpf. Blank, model, and vehicle (≤ 0.1% DMSO) controls were included, with at least three replicates per group (n = 10–15 embryos). At 5 dpf, retinal vasculature was imaged using fluorescence microscopy and analyzed for branching number, vessel length, and density using ImageJ. Data are presented as mean ± standard deviation (SD) and analyzed using one-way ANOVA followed by Tukey’s post hoc test, with p < 0.05 considered statistically significant.
The zebrafish (Danio rerio) model was employed due to its distinct advantages, the optical transparency, which enable in vivo vascular visualization. […] Firstly, the 8 candidate compounds underwent preliminary toxicity evaluation in zebrafish embryos. […] At 48 hpf, the number of surviving embryos was quantified, and the lethal dose 50 (LD50) for each compound was determined based on the survival data. […]

Where [6] appears, read: candesartan 10 mg/kg, Sunitinib 40 mg/kg.

SMILES strings stand for the structures. Read-outs that look alike come from different tables or passages of the source.

Take `CCOc1nc2cccc(C(=O)O)c2n1Cc1ccc(-c2ccccc2-c2nnn[nH]2)cc1` [Compound A-2, Candesartan]: in the series on HUVEC [1], the “Tube formation: mean mesh size and total mesh area” value is “increase the mean mesh and the total meshe area”; the “Tube formation: number of junctions, total segment length, number of meshes” value is “significantly reduced the number of junctions, total segment length, and the number of meshes”. Besides, the “Expression of MMP9 and FAK” value in series [2] is “significantly decreased the expression of MMP9 and FAK”. Also, the HUVEC apoptosis result in the series on HUVEC [3] is given as “no apoptosis was observed”. Besides, the “Cytotoxicity on HUVEC cells” value in the series with HUVEC [4] (15 µM) is on record as “no significant cytotoxicity”. In addition, the IC50 in the series with HUVEC [4] (48 h) was found to be 32.4 ± 1.69 µM. Moreover, the IC50 in the series with HUVEC [4] (72 h) was determined as 27.1 ± 0.91 µM. Further, the Tumor growth result in series [5] (candesartan 10 mg/kg once daily, Sunitinib 40 mg/kg every two days, intragastric, 14 days, vs vehicle) is “significantly reduce the tumor growth”. In series [5] (setting [6]), the “Coverage of pericytes on endothelial cells in tumors (CD31/α-SMA)” value was “significantly increased” and the “Lung surface nodules / pulmonary metastasis” value is “inhibited pulmonary metastasis of breast cancer”. In addition, the “cAMP accumulation (reversal of Apelin-13 effect)” value at APLNR is listed as “dose-dependently restored cAMP accumulation”. In the series on zebrafish embryos, the “LD50(µM,48 h)” value is given as 1.10 ± 0.12 µM.

For the origin of these results see paper PMC12763877 (Journal of Experimental & Clinical Cancer Research : CR, 2025).
